The target in series [1] is T1, human cloned 5-HT6 receptors (Homo sapiens, UniProt P50406).
T1 construct: expressed in transfected cells; host or cells: Hela cells
Nature of the series: 5-HT6 binding affinity, [3H]-LSD displacement on membranes of Hela cells expressing human cloned 5-HT6 receptors.

[2] abbreviates: [3H]-LSD 3.0 nM, Hela cell membranes, 120 min at room temperature, read-out: 5-HT6 binding Ki.

pKi: −log10 of the molar value. Where a name gives a salt, the structure may show the parent alone. Read-outs that look alike come from different tables or passages of the source.

T1 sequence (P50406 whole entry): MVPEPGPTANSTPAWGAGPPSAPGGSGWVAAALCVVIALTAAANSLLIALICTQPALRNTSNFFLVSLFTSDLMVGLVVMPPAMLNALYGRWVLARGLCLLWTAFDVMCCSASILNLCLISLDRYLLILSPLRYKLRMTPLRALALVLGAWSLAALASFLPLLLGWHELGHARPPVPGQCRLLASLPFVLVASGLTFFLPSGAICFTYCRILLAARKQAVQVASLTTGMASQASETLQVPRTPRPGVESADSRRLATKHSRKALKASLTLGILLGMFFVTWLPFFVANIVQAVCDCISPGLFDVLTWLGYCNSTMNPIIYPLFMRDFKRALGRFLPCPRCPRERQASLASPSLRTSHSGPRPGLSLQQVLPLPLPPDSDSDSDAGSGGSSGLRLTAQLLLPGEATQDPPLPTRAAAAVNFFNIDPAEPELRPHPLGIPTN

What is called pKi is the Ki on a negative log10 scale, so that one unit is a factor of ten. In series [1], `O=S(=O)(c1ccccc1Br)n1ccc2c(N3CCNCC3)cccc21` [Example 2] gave a negative logarithm of the Ki (pKi) of 8.70.

Consider `O=S(=O)(c1c(Cl)nc2sccn12)n1ccc2c(N3CCNCC3)cccc21` [Example 3], for which, in series [1], the pKi was 9.00.

In series [1], `Nc1ccc(S(=O)(=O)n2ccc3c(N4CCNCC4)cccc32)cc1` [Example 5] showed a negative-log Ki (pKi) of 9.00.

For `O=S(=O)(c1ccccc1)n1ccc2c(N3CCN(C4=NCCN4)CC3)cccc21` [Example 14, 4-[4-(4,5-Dihydro-1H-imidazol-2-yl)-piperazin-1-yl]-1-(phenylsulfonyl)-1H-indole], the pKi in series [1] was 7.62.

Regarding `Nc1ccc(S(=O)(=O)n2ccc3c(N4CCN(C5=NCCN5)CC4)cccc32)cc1` [Example 18], in series [1] (setting [2]), the negative-log Ki (pKi) is 8.22.

As to `O=S(=O)(c1c(Cl)nc2sccn12)n1ccc2c(N3CCN(Cc4ccccc4)CC3)cccc21` [Example 27], in series [1] (setting [2]), the pKi was 7.25.

With `CC(=O)N1CCN(c2cccc3c2ccn3S(=O)(=O)c2c(Cl)nc3sccn23)CC1` [Example 30], the pKi in series [1] (setting [2]) is 6.66.

As to `COc1ccc(S(=O)(=O)n2ccc3c(N4CCN(Cc5cccc([N+](=O)[O-])c5)CC4)cccc32)cc1OC` [Example 33], the pKi in series [1] (setting [2]) was 7.35.

As for `Nc1ccc(S(=O)(=O)n2ccc3c(N4CCN(Cc5ccccc5)CC4)cccc32)cc1` [Example 35], the pKi in series [1] (setting [2]) was 7.82.

As to `CN1CCN(c2cccc3c2ccn3S(=O)(=O)c2ccc(N)cc2)CC1` [Example 36], the pKi in series [1] (setting [2]) is 8.52.

In the case of `Nc1ccc(S(=O)(=O)n2ccc3c(N4CCN(Cc5ccc(Cl)s5)CC4)cccc32)cc1` [Example 37], the pKi in series [1] (setting [2]) is 7.23.

Regarding `Nc1ccc(S(=O)(=O)n2ccc3c(N4CCN(Cc5cccc([N+](=O)[O-])c5)CC4)cccc32)cc1` [Example 38], in series [1] (setting [2]), the pKi is 8.30.

Regarding `O=S(=O)(c1ccccc1)n1ccc2c(N3CCN(Cc4ccncc4)CC3)cccc21` [Example 40], the pKi in series [1] (setting [2]) is 8.40.

Turning to `O=S(=O)(c1ccccc1)n1ccc2c(N3CCN(Cc4cccnc4)CC3)cccc21` [Example 41], the pKi in series [1] (setting [2]) is 8.15.

Take `COc1cccc(CN2CCN(c3cccc4c3ccn4S(=O)(=O)c3ccccc3Br)CC2)c1` [Example 42]: the pKi in series [1] (setting [2]) is 8.40.

As for `O=S(=O)(c1ccccc1Br)n1ccc2c(N3CCN(Cc4ccncc4)CC3)cccc21` [Example 43], the negative-log Ki (pKi) in series [1] (setting [2]) is 8.15.

With `O=S(=O)(c1ccccc1Br)n1ccc2c(N3CCN(Cc4cccnc4)CC3)cccc21` [Example 44], in series [1] (setting [2]), the pKi is 9.00.

`O=S(=O)(c1c(Cl)nc2sccn12)n1ccc2c(N3CCN(Cc4ccncc4)CC3)cccc21` [Example 46]: the pKi in series [1] (setting [2]) was 8.30.

Turning to `O=S(=O)(c1c(Cl)nc2sccn12)n1ccc2c(N3CCN(Cc4cccnc4)CC3)cccc21` [Example 47], in series [1] (setting [2]), the pKi is 8.22.

Consider `COc1cccc(CN2CCN(c3cccc4c3ccn4S(=O)(=O)c3ccc(OC)c(OC)c3)CC2)c1` [Example 48], for which the pKi in series [1] (setting [2]) was 7.85.

For `COc1ccc(S(=O)(=O)n2ccc3c(N4CCN(Cc5ccncc5)CC4)cccc32)cc1OC` [Example 49], in series [1] (setting [2]), the pKi was 8.00.

As for `COc1ccc(S(=O)(=O)n2ccc3c(N4CCN(Cc5cccnc5)CC4)cccc32)cc1OC` [Example 50], the pKi in series [1] (setting [2]) was 7.77.

For the compound `COc1cccc(CN2CCN(c3cccc4c3ccn4S(=O)(=O)c3ccc(N)cc3)CC2)c1` [Example 51], the pKi in series [1] (setting [2]) is 8.15.

As to `Nc1ccc(S(=O)(=O)n2ccc3c(N4CCN(Cc5ccncc5)CC4)cccc32)cc1` [Example 52], the pKi in series [1] (setting [2]) is 7.60.

`Nc1ccc(S(=O)(=O)n2ccc3c(N4CCN(Cc5cccnc5)CC4)cccc32)cc1` [Example 53]: the pKi in series [1] (setting [2]) is 8.40.

As to `O=S(=O)(c1ccccc1)n1ncc2c(N3CCN(Cc4ccccc4)CC3)cccc21` [Example 57, 4-(4-Benzylpiperazin-1-yl)-1-(phenylsulfonyl)-1H-indazole hydrochloride], in series [1] (setting [2]), the pKi is 7.85.

As for `O=S(=O)(c1ccccc1)n1ncc2c(N3CCNCC3)cccc21` [Example 58, 1-(Phenylsulfonyl)-4-(1-piperazinyl)-1H-indazole hydrochloride], the pKi in series [1] is 9.52.

`O=S(=O)(c1ccccc1)n1ncc2c(N3CCN(CCc4ccccc4)CC3)cccc21` [Example 59, 4-[4-(2-phenylethyl)piperazin-1-yl]-1-(phenylsulfonyl)-1H-indazole hydrochloride]: in series [1] (setting [2]), the pKi is 9.00.

The melting point is the temperature, or range, at which the solid turns liquid. Take `O=S(=O)(c1ccccc1)n1ncc2c(N3CCN(CCOc4ccc(F)cc4)CC3)cccc21` [Example 60]: the melting point was in the range of 184 to 186 °C. In addition, the pKi in series [1] (setting [2]) was 6.51.

In the case of `O=C(CCCN1CCN(c2cccc3c2cnn3S(=O)(=O)c2ccccc2)CC1)c1ccc(F)cc1` [Example 61], the pKi in series [1] (setting [2]) was 8.52.

On to `O=C(CN1CCN(c2cccc3c2cnn3S(=O)(=O)c2ccccc2)CC1)c1ccccc1` [Example 62], for which the melting point was in the range of 202 to 205 °C. In addition, the pKi in series [1] (setting [2]) was 7.92.

On to `O=S(=O)(c1ccccc1)n1ncc2c(N3CCN(CCCc4ccccc4)CC3)cccc21` [Example 63], for which the melting point was 188 to 190 °C. In addition, in series [1] (setting [2]), the pKi was 8.22.

`CCCN1CCN(c2cccc3c2cnn3S(=O)(=O)c2ccccc2)CC1` [Example 64]: the melting point lay within 258 to 260 °C. In addition, in series [1] (setting [2]), the negative logarithm of the Ki (pKi) is 8.70.

The compound `O=S(=O)(C=Cc1ccccc1)n1ncc2c(N3CCN(Cc4ccccc4)CC3)cccc21` [Example 65] displayed a melting point of 233 to 235 °C. Moreover, in series [1] (setting [2]), the pKi was 6.76.

The compound `O=S(=O)(c1ccc(F)cc1)n1ncc2c(N3CCN(Cc4ccccc4)CC3)cccc21` [Example 66] showed a melting point of 240 to 241 °C. The pKi in series [1] (setting [2]) was 7.08.

Regarding `O=S(=O)(c1ccc(Cl)cc1)n1ncc2c(N3CCN(Cc4ccccc4)CC3)cccc21` [Example 67], the melting point lay in the range of 238 to 239 °C. Besides, the pKi in series [1] (setting [2]) is 7.06.

In turn, `COc1ccc(S(=O)(=O)n2ncc3c(N4CCN(Cc5ccccc5)CC4)cccc32)cc1` [Example 69] came in with a melting point of 206 to 209 °C. In series [1] (setting [2]), the pKi was 6.94.

In turn, `O=S(=O)(c1ccc(OC(F)(F)F)cc1)n1ncc2c(N3CCN(Cc4ccccc4)CC3)cccc21` [Example 70] gave a melting point of 229 to 231 °C. Further, the pKi in series [1] (setting [2]) was 6.60.

On to `O=S(=O)(c1cc(Cl)c(Cl)s1)n1ncc2c(N3CCN(Cc4ccccc4)CC3)cccc21` [Example 71], for which the melting point was in the range of 235 to 237 °C. Also, in series [1] (setting [2]), the pKi is 7.09.

With `Cc1ccc(S(=O)(=O)n2ncc3c(N4CCN(Cc5ccccc5)CC4)cccc32)cc1` [Example 72], the melting point lay within 215 to 217 °C. Also, in series [1] (setting [2]), the negative logarithm of the Ki (pKi) was 7.25.

In the case of `Nc1ccc(S(=O)(=O)n2ccc3cc(N4CCNCC4)ccc32)cc1` [Example 73, 1-(4-Aminophenylsulfonyl)-5-piperazin-1-yl-1H-indole hydrochloride], the pKi in series [1] (setting [2]) was 7.47.

Turning to `O=S(=O)(c1ccc(Br)cc1)n1ncc2cc(N3CCNCC3)ccc21` [Example 79], the pKi in series [1] (setting [2]) was 7.72.

Consider `O=S(=O)(c1ccc(Br)s1)n1ncc2cc(N3CCNCC3)ccc21` [Example 81], for which, in series [1], the pKi was 7.36.

As to `CCCCOc1ccc(S(=O)(=O)n2ccc3cc(N4CCNCC4)ccc32)cc1` [Example 83], the pKi in series [1] (setting [2]) was 7.42.

`Cc1nn(C)c(Cl)c1S(=O)(=O)n1ccc2cc(N3CCNCC3)ccc21` [Example 86]: the pKi in series [1] (setting [2]) was 7.36.

As to `Cc1c(S(=O)(=O)n2ncc3ccc(N4CCNCC4)cc32)sc2ccc(Cl)cc12` [Example 89], the negative logarithm of the Ki (pKi) in series [1] (setting [2]) was 7.62.

On to `O=S(=O)(c1cc(Cl)c(Cl)s1)n1ncc2cc(N3CCNCC3)ccc21` [Example 90], for which, in series [1] (setting [2]), the pKi is 7.52.

On to `O=S(=O)(c1cc(Cl)c(Cl)s1)n1ncc2ccc(N3CCNCC3)cc21` [Example 91], for which the pKi in series [1] (setting [2]) was 8.22.

As for `O=S(=O)(c1ccc2ccccc2c1)n1ncc2ccc(N3CCNCC3)cc21` [Example 96], in series [1] (setting [2]), the pKi is 7.43.

On to `O=S(=O)(c1ccc(I)cc1)n1ncc2cc(N3CCNCC3)ccc21` [Example 101], for which the pKi in series [1] (setting [2]) was 7.74.

These data come from patent US7557098B2, “1-aryl- or 1-alkylsulfonyl-heterocyclylbenzazoles as 5-hydroxytryptamine-6 ligands” (Wyeth, priority 2000, dated 2009).
